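Results reflect a 48-hour exposure of cells in 96-well plates to compound at five concentrations. At the GI50, growth is halved.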 The source made the active and inactive calls. Rule as the data show it: active = GI50 up to about 1.1 µM and inactive = higher.
Key:
Test in all cases: NCI tumour cell line growth inhibition, 48 h
[1] = test system: 786-0
[2] = test system: NCI-H226
[3] = test system: SN12C
[4] = test system: OVCAR-8
[5] = test system: K562
[6] = test system: UO-31
[7] = test system: ACHN
[8] = test system: NCI-H460
[9] = test system: M14
[10] = test system: U-251
[11] = test system: NCI-H522
[12] = test system: KM12
[13] = test system: SR
[14] = test system: SF-295
[15] = test system: IGROV-1
[16] = test system: Malme-3M
[17] = test system: SNB-75
[18] = test system: LXFL 529
[19] = test system: UACC-62
[20] = test system: OVCAR-4
[21] = test system: LOX IMVI
[22] = test system: OVCAR-3
[23] = test system: HCC 2998
[24] = test system: EKVX
[25] = test system: SF-268
[26] = test system: MOLT-4
[27] = test system: TK-10
[28] = test system: SW-620
[29] = test system: CAKI-1
[30] = test system: HT-29
[31] = test system: SF-539
[32] = test system: DMS-114
[33] = test system: A498
[34] = test system: HOP-92
[35] = test system: SK-MEL-28
[36] = test system: HCT-15
[37] = test system: DMS-273
[38] = test system: A549
[39] = test system: SK-MEL-2
[40] = test system: SK-OV-3
[41] = test system: NCI-H23
[42] = test system: UACC-257
[43] = test system: SK-MEL-5
[44] = test system: SNB-78
[45] = test system: RXF 393
[46] = test system: OVCAR-5
[47] = test system: HCT-116
[48] = test system: CCRF-CEM
[49] = test system: DLD-1
[50] = test system: COLO 205
[51] = test system: HOP-62
[52] = test system: HL-60
[53] = test system: KM-20L2
[54] = test system: RPMI-8226
[55] = test system: SNB-19
[56] = test system: XF498
[57] = test system: M19-MEL

Measured: GI50

C=C1C(=O)OC2/C=C(\C)C3OC3/C=C(/C(=O)OC)C(O)C(OC(=O)C3(C)OC3C)C12 (configuration not stated)
1.53 µM: [36]
inactive: [1] 1.74 µM | [2] 15.1 µM | [3] 2.39 µM | [4] 1.25 µM | [6] 11.2 µM | [7] 3.14 µM | [8] 5.41 µM | [9] 1.9 µM | [10] 4.58 µM | [12] 2.95 µM | [14] 13.6 µM | [15] 2.3 µM | [16] 1.52 µM | [17] 13.5 µM | [18] 1.36 µM | [20] 2.88 µM | [21] 1.76 µM | [22] 2.42 µM | [23] 1.9 µM | [24] 2.58 µM | [25] 15.3 µM | [27] 2.74 µM | [30] 1.65 µM | [31] 2.18 µM | [33] 7.64 µM | [34] 2.86 µM | [35] 1.52 µM | [37] 1.59 µM | [38] 15.3 µM | [39] 2.48 µM | [40] 13.4 µM | [41] 1.85 µM | [42] 1.53 µM | [43] 1.31 µM | [44] 1.79 µM | [46] 16.7 µM | [50] 1.27 µM | [51] 17.7 µM
active: [5] 0.685 µM | [11] 0.193 µM | [13] 0.566 µM | [19] 1.01 µM | [26] 0.681 µM | [28] 0.959 µM | [29] 1.08 µM | [32] 0.435 µM | [45] 1.02 µM | [47] 1.11 µM | [48] 0.397 µM | [49] 1.03 µM

O=C(CC1C(=O)Nc2ccccc2[S+]1[O-])Nc1ccc(Cl)cc1 (configuration not stated)
inactive: [1] 39 µM | [2] > 100 µM | [3] 72.4 µM | [4] 32.7 µM | [5] > 100 µM | [6] 35.1 µM | [7] 79.3 µM | [8] > 100 µM | [52] 46.9 µM | [9] > 100 µM | [10] 35.7 µM | [11] > 100 µM | [12] > 100 µM | [13] 32.4 µM | [14] > 100 µM | [15] 41.3 µM | [16] 98.2 µM | [17] 29.4 µM | [18] 91.8 µM | [19] 37 µM | [20] 49 µM | [21] > 100 µM | [22] > 100 µM | [23] 79.6 µM | [25] 57.5 µM | [26] 50.2 µM | [27] > 100 µM | [53] > 100 µM | [28] > 100 µM | [29] > 100 µM | [30] > 100 µM | [54] > 100 µM | [31] 23.7 µM | [34] 29 µM | [35] > 100 µM | [37] > 100 µM | [38] > 100 µM | [39] > 100 µM | [40] 30.1 µM | [41] 35.2 µM | [42] 69.5 µM | [44] 53.7 µM | [46] > 100 µM | [49] > 100 µM | [50] > 100 µM | [55] 93.3 µM | [51] 33.7 µM
> 100 µM: [36]

c1ccc(C2N=NN(c3ccccc3)C2N2CCCCC2)cc1 (configuration not stated)
inactive: [1] 64.7 µM | [2] > 100 µM | [3] > 100 µM | [4] > 10 µM | [5] > 100 µM | [6] > 100 µM | [7] > 100 µM | [52] > 100 µM | [9] > 100 µM | [10] 56 µM | [11] > 100 µM | [12] > 100 µM | [13] > 100 µM | [14] 33.8 µM | [15] 52.2 µM | [16] > 100 µM | [17] 20 µM | [18] > 100 µM | [19] 67 µM | [20] > 100 µM | [21] > 100 µM | [22] > 100 µM | [56] 49.5 µM | [23] > 100 µM | [24] > 100 µM | [25] 46.5 µM | [57] > 100 µM | [26] > 100 µM | [27] > 100 µM | [53] > 100 µM | [28] > 100 µM | [29] > 100 µM | [30] > 100 µM | [54] > 100 µM | [31] 55.8 µM | [32] > 100 µM | [34] 17.3 µM | [35] > 100 µM | [38] > 100 µM | [39] > 100 µM | [40] 38.6 µM | [41] > 100 µM | [42] > 100 µM | [43] > 100 µM | [44] 75 µM | [46] > 100 µM | [47] > 100 µM | [48] > 100 µM | [49] > 100 µM | [50] > 100 µM | [55] > 100 µM | [51] 42.9 µM
> 100 µM: [36]

Source: ChEMBL document CHEMBL1201862, “PubChem BioAssay data set” (2004)
